According to patent publication US9273040B2 (Merck Sharp & Dohme Corp., priority 2011, dated 2016):

What was measured:
Format in all cases: cell-based
[1] = target: T1, human Nav1.5 channels stably expressed in HEK 293 cells (Homo sapiens, UniProt Q14524); experiment: IonWorks Quattro automated patch-clamp, sodium current, inactivated state block; details: selectivity over Nav1.5
T1 construct: expressed in transfected cells
Method: (§1) Compounds were tested on human Nav1.7 and Nav1.5 channels stably expressed in HEK 293 cells. […] Cells were sealed on a planar substrate using the Population Patch Plate (PPC) technology. Electrical access was obtained using both nystatin and amphotericin. A double-pulse protocol was used for the determination of IC50 values for inactivated state block. Nav1.7 and Nav1.5 expressing cells were voltage clamped at −100 mV and −110 mV, respectively. A depolarizing prepulse to −10 mV (Nav1.7) or −30 mV (Nav1.5) for 1000 ms followed by a 10 ms repolarization to −100 mV (Nav1.7) or −110 mV (Nav1.5) was given to generate fractional channel inactivation of ˜50%, followed by a 10 ms test pulse to −10 mV (Nav1.7) or −30 mV (Nav1.5) to measure peak current in control conditions and after compound addition. The following recording solutions were used (mM). External: 150 NaCl, 2 CaCl2, 5 KCl, 1 Mg Cl2, 10 HEPES, 12 Dextrose; internal: 120 CsF, 30 CsCl, 10 EGTA, 5 HEPES, 5 NaF, 2 MgCl2.
(§2) For all electrophysiology experiments, offline analysis was used to correct for current rundown and to determine percent inhibition as a function of drug concentration. IC50 values were determined by fitting to the Hill equation.

[2] = target: T2, human Nav1.7 channels stably expressed in HEK 293 cells (Homo sapiens, UniProt Q15858); experiment: as above; details: read-out: potency for the Nav 1.7 sodium ion channel (as measured by IonWorks)
T2 construct: expressed in transfected cells
T2 sequence (Q15858 whole entry): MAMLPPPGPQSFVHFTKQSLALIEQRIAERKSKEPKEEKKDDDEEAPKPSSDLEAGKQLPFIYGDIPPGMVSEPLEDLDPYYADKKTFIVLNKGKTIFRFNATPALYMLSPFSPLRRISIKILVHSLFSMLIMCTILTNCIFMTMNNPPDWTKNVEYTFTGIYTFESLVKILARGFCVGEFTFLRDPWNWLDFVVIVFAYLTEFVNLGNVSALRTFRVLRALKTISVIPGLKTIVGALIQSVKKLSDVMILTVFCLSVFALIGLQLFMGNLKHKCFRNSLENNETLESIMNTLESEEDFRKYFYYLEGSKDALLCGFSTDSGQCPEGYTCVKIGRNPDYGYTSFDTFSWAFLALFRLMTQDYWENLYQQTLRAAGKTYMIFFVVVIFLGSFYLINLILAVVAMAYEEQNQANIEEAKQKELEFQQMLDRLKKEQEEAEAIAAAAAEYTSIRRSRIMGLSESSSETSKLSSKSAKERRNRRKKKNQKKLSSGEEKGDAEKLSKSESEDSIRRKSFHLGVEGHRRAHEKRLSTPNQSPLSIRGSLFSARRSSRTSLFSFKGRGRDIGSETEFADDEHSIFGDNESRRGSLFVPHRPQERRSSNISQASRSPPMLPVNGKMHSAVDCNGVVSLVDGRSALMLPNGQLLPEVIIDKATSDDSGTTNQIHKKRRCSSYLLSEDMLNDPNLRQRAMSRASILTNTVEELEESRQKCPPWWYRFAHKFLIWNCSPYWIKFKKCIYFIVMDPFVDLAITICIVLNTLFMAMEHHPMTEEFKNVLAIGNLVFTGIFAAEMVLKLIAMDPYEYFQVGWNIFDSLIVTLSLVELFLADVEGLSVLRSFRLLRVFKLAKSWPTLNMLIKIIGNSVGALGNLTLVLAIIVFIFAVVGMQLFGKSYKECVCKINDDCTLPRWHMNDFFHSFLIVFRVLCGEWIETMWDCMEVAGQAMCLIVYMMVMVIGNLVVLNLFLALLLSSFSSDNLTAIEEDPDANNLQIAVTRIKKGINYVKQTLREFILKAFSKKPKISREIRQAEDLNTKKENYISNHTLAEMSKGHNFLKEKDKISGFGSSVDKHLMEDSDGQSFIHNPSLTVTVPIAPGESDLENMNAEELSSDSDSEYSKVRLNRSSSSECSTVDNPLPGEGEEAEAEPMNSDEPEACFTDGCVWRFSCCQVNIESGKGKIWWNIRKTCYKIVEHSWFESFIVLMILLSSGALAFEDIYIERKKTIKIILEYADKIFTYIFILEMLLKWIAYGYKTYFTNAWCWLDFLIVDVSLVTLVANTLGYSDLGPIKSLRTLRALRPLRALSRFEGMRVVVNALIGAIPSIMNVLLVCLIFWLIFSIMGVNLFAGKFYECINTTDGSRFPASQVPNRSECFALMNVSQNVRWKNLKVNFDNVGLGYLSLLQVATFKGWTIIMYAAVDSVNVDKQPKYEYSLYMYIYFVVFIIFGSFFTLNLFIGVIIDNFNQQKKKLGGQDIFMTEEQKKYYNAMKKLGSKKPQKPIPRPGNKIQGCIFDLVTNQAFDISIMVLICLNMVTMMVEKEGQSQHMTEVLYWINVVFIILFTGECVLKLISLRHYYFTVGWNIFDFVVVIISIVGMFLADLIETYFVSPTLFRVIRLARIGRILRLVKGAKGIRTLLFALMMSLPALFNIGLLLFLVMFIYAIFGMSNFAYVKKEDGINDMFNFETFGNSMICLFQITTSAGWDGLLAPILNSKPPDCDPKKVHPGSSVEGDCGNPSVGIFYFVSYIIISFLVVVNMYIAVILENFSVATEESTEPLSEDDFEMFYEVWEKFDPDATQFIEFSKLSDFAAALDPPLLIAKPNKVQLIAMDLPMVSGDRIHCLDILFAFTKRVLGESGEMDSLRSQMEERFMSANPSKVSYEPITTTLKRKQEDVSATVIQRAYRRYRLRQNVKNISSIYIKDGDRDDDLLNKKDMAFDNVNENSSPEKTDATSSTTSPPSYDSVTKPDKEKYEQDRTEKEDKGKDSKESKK
Method: as §1, §2

[3] = target: T1, human Nav1.5 channels stably expressed in HEK 293 cells; experiment: PatchXpress 7000 automated patch-clamp, sodium current; details: selectivity over Nav1.5
Method in brief: (§3)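 IC50 values came from Hill-equation fits of rundown-corrected inhibition. PatchXpress recordings at 22° C held cells 20 mV negative to V0.5 inact and applied 10 Hz trains of 30 ms steps to −20 mV (Nav1.7) or an 8000 ms prepulse 7 mV positive to V0.5 inact. […]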

[4] = target: T2, human Nav1.7 channels stably expressed in HEK 293 cells; experiment: as above; details: 22° C., read-out: potency for the Nav 1.7 sodium ion channel (as measured by PatchXpress)
Method in brief: as §3

T1 sequence (Q14524 whole entry): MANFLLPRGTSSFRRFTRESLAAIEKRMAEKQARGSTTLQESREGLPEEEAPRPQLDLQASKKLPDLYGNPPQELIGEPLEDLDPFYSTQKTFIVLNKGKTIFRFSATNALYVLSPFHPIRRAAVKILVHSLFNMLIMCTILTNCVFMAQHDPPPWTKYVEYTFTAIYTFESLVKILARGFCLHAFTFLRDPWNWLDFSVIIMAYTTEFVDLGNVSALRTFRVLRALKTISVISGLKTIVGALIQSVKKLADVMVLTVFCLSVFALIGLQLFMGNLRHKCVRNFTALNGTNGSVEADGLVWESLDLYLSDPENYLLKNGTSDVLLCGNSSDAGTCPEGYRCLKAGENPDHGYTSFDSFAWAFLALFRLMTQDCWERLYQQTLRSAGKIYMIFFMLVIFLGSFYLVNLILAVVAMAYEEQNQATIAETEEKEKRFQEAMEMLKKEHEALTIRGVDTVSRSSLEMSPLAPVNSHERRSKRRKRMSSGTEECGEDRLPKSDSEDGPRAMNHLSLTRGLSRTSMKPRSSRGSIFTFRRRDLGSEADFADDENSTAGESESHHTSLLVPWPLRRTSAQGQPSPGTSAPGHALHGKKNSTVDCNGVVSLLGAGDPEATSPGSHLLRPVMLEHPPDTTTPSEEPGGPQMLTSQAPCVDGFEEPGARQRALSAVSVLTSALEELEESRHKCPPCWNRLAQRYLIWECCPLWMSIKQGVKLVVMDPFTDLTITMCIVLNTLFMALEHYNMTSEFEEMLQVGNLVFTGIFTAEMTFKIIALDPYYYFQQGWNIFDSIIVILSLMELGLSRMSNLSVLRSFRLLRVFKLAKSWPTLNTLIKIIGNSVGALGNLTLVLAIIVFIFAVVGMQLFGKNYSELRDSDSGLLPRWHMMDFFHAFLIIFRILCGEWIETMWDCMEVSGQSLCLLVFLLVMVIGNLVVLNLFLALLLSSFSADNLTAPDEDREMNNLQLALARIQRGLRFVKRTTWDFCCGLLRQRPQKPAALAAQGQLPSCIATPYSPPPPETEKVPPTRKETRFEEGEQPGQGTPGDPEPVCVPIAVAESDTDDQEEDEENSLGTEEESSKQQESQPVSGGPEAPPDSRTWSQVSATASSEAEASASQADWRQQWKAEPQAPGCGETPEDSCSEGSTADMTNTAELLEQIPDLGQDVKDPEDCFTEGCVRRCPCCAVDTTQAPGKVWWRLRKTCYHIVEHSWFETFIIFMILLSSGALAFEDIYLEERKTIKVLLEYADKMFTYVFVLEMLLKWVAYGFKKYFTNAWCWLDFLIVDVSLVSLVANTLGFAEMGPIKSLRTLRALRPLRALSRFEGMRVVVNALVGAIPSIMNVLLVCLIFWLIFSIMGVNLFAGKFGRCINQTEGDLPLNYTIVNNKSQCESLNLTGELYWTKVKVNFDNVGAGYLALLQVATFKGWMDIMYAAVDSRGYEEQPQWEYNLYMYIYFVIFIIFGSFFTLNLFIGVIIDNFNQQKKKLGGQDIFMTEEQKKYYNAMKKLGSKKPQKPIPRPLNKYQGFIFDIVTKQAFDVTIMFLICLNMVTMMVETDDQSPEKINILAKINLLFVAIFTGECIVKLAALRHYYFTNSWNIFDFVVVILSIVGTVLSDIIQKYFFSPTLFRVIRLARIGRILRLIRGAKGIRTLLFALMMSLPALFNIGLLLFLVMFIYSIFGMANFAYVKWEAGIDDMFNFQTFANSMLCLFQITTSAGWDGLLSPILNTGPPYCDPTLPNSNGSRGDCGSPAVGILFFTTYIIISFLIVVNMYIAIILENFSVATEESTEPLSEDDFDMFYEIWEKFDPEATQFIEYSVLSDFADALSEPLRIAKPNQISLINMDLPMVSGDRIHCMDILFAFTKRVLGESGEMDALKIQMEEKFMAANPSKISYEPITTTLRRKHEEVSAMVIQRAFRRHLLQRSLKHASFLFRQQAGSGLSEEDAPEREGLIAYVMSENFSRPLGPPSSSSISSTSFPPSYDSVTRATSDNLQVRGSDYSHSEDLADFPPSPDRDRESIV

SMILES	ratio of Nav 1.5:Nav 1.7 potency, determined by IonWorks measurement [1]	IC50 [2] [nM]	ratio of Nav 1.5:Nav 1.7 potency, determined by PatchXpress measurement [3]	IC50 [4] [nM]
O=c1oc2cc(S(=O)(=O)Nc3ncns3)ccc2n1Cc1ccccc1C1=CCNCCC1 [Compound 3-5, 2-oxo-3-[2-(2,5,6,7-tetrahydro-1H-azepin-4-yl)benzyl]-N-1,2,4-thiadiazol-5-yl-2,3-dihydro-1,3-benzoxazole-6-sulfonamide]	> 133	248	> 271	111
O=c1oc2cc(S(=O)(=O)Nc3ncns3)ccc2n1Cc1ccccc1C1=CC2CCC(C1)N2 (stereo not shown) [Compound 3-7, 3-[2-(8-azabicyclo[3.2.1]oct-2-en-3-yl)benzyl]-2-oxo-N-1,2,4-thiadiazol-5-yl-2,3-dihydro-1,3-benzoxazole-6-sulfonamide]	> 113	292	> 219	137
O=c1oc2cc(S(=O)(=O)Nc3ncns3)ccc2n1Cc1ccccc1-c1cccc2c1CCNC2 [Compound 3-8, 2-oxo-3-[2-(1,2,3,4-tetrahydroisoquinolin-5-yl)benzyl]-N-1,2,4-thiadiazol-5-yl-2,3-dihydro-1,3-benzoxazole-6-sulfonamide]	> 103	321	> 108	278
NC/C=C/c1cc(Cl)ccc1Cn1c(=O)oc2cc(S(=O)(=O)Nc3ncns3)ccc21 [Compound 3-11, 3-{2-[(1E)-3-aminoprop-1-en-1-yl]-4-chlorobenzyl}-2-oxo-N-1,2,4-thiadiazol-5-yl-2,3-dihydro-1,3-benzoxazole-6-sulfonamide]	> 56	596	87	219
C[C@H](c1cccc2c1CNCC2)n1c(=O)oc2cc(S(=O)(=O)Nc3ncns3)ccc21 [Compound 4-4, 2-Oxo-3-[(1R)-1-(1,2,3,4-tetrahydroisoquinolin-8-yl)ethyl]-N-(1,2,4-thiadiazol-5-yl)-2,3-dihydro-1,3-benzoxazole-6-sulfonamide]	4494	5	> 1153	26
CC(c1ccccc1)n1c(=O)oc2cc(S(=O)(=O)Nc3ncns3)ccc21 (stereo not shown) [Compound 4-6, 2-oxo-3-(1-phenylethyl)-N-1,2,4-thiadiazol-5-yl-2,3-dihydro-1,3-benzoxazole-6-sulfonamide]	> 35	954	> 88	342
C[C@H](c1ccccc1)n1c(=O)oc2cc(S(=O)(=O)Nc3ncns3)ccc21 [Compound 4-7, 2-oxo-3-[(1R)-1-phenylethyl]-N-1,2,4-thiadiazol-5-yl-2,3-dihydro-1,3-benzoxazole-6-sulfonamide]	28	670	287	74
CC(c1ccccc1C(F)(F)F)n1c(=O)oc2cc(S(=O)(=O)Nc3ncns3)ccc21 (stereo not shown) [Compound 4-9, 2-oxo-N-1,2,4-thiadiazol-5-yl-3-{1-[2-(trifluoromethyl)phenyl]ethyl}-2,3-dihydro-1,3-benzoxazole-6-sulfonamide]	22	1140	> 11	2640
CC(CCc1ccccc1)n1c(=O)oc2cc(S(=O)(=O)Nc3ncns3)ccc21 (stereo not shown) [Compound 4-11, 3-(1-methyl-3-phenylpropyl)-2-oxo-N-1,2,4-thiadiazol-5-yl-2,3-dihydro-1,3-benzoxazole-6-sulfonamide]	9	1730	> 17	1770
CC(c1cccc2c1CNCC2)n1c(=O)oc2cc(S(=O)(=O)Nc3ncns3)ccc21 (stereo not shown) [Compound 4-14, 2-oxo-3-[1-(1,2,3,4-tetrahydroisoquinolin-8-yl)ethyl]-N-1,2,4-thiadiazol-5-yl-2,3-dihydro-1,3-benzoxazole-6-sulfonamide]	> 1338	25	> 495	61
C[C@@H](c1cccc2c1CNCC2)n1c(=O)oc2cc(S(=O)(=O)Nc3ncns3)ccc21 [Compound 4-15, 2-oxo-3-[(1S)-1-(1,2,3,4-tetrahydroisoquinolin-8-yl)ethyl]-N-1,2,4-thiadiazol-5-yl-2,3-dihydro-1,3-benzoxazole-6-sulfonamide]	> 451	73	> 87	343
CN1CCc2cccc(Cn3c(=O)oc4cc(S(=O)(=O)Nc5ncns5)ccc43)c2C1 [Compound 6-1, 3-[(2-Methyl-1,2,3,4-tetrahydroisoquinolin-8-yl)methyl]-2-oxo-N-(1,2,4-thiadiazol-5-yl)-2,3-dihydro-1,3-benzoxazole-6-sulfonamide]	88	366	> 35	869
CCN1CCc2cccc(Cn3c(=O)oc4cc(S(=O)(=O)Nc5ncns5)ccc43)c2C1 [Compound 6-2, 3-[(2-ethyl-1,2,3,4-tetrahydroisoquinolin-8-yl)methyl]-2-oxo-N-1,2,4-thiadiazol-5-yl-2,3-dihydro-1,3-benzoxazole-6-sulfonamide]	> 98	336	71	234
O=c1oc2cc(S(=O)(=O)Nc3ncns3)ccc2n1Cc1cccc2c1CN(CC1CC1)CC2 [Compound 6-4, 3-{[2-(cyclopropylmethyl)-1,2,3,4-tetrahydroisoquinolin-8-yl]methyl}-2-oxo-N-1,2,4-thiadiazol-5-yl-2,3-dihydro-1,3-benzoxazole-6-sulfonamide]	54	464	37	626
CS(=O)(=O)N1CCc2cccc(Cn3c(=O)oc4cc(S(=O)(=O)Nc5ncns5)ccc43)c2C1 [Compound 8-4, 3-{[2-(Methylsulfonyl)-1,2,3,4-tetrahydroisoquinolin-8-yl]methyl}-2-oxo-N-(1,2,4-thiadiazol-5-yl)-2,3-dihydro-1,3-benzoxazole-6-sulfonamide]	20	526	> 1180	254
CC(=O)N1CCc2cccc(Cn3c(=O)oc4cc(S(=O)(=O)Nc5ncns5)ccc43)c2C1 [Compound 9-1, 3-[(2-Acetyl-1,2,3,4-tetrahydroisoquinolin-8-yl)methyl]-2-oxo-N-(1,2,4-thiadiazol-5-yl)-2,3-dihydro-1,3-benzoxazole-6-sulfonamide]	35	638	> 57	530
O=C(C1CC1)N1CCc2cccc(Cn3c(=O)oc4cc(S(=O)(=O)Nc5ncns5)ccc43)c2C1 [Compound 10-1, 3-{[2-(Cyclopropylcarbonyl)-1,2,3,4-tetrahydroisoquinolin-8-yl]methyl}-2-oxo-N-1,2,4-thiadiazol-5-yl-2,3-dihydro-1,3-benzoxazole-6-sulfonamide]	> 50	666	14	598
O=c1oc2cc(S(=O)(=O)Nc3ncns3)c(F)cc2n1Cc1cccc2c1CNCC2 [Compound 11-5, 5-Fluoro-2-oxo-3-(1,2,3,4-tetrahydroisoquinolin-8-ylmethyl)-N-(1,2,4-thiadiazol-5-yl)-2,3-dihydro-1,3-benzoxazole-6-sulfonamide]	182	101	139	69
C[C@@H](c1cccc2c1CNCC2)n1c(=O)oc2cc(S(=O)(=O)Nc3ncns3)c(F)cc21 [Compound 11-6, 5-fluoro-2-oxo-3-[(1S)-1-(1,2,3,4-tetrahydroisoquinolin-8-yl)ethyl]-N-1,2,4-thiadiazol-5-yl-2,3-dihydro-1,3-benzoxazole-6-sulfonamide]	57	576	> 93	322
